Experiments:
Format in all cases: in vivo
Conditions in all cases: 250 g/h, evaluated after 13 days
Setaria faberi (SETFA) [1] = assay: Post-emergence herbicidal glasshouse test, percentage damage
In short: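 Wheat, barley and Setaria faberi were sprayed post-emergence after 8 days' growth (24/16 °C, 14 h light, 65% humidity) with compound in acetone/water (50:50) containing 0.5% Tween 20, at the indicated rates. On wheat, compounds were also applied with cloquintocet-mexyl at 50 g/ha. Damage was scored after 13 days on a five-point scale (5=80-100% to 1=0-19%).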

[2] = system: Echinochloa crus-galli (ECHCG); assay: Pre-emergence herbicidal glasshouse test, percentage damage
In short: (§1)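 Percentage damage, read 13 days after treatment and banded into five classes (1=0-19% up to 5=80-100%). Plants in pots of standard soil received 250 g/h as a spray from acetone/water (50:50) containing 0.5% Tween 20. Application was one day (pre-emergence) or eight days (post-emergence) after sowing.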

Lolium perenne (LOLPE) [3] = assay: as above
In short: as §1

[4] = system: Alopecurus myosuroides (ALOMY); assay: as above
In short: as §1

Setaria faberi (SETFA) [5] = assay: as above
In short: as §1

Avena fatua (AVEFA) [6] = assay: as above
In short: as §1

[7] = system: Echinochloa crus-galli (ECHCG); assay: Post-emergence herbicidal glasshouse test, percentage damage
In short: as §1

Lolium perenne (LOLPE) [8] = assay: as above
In short: as §1

[9] = system: Alopecurus myosuroides (ALOMY); assay: as above
In short: as §1

Avena fatua (AVEFA) [10] = assay: as above
In short: as §1

CC#Cc1cc(C)c(C2C(=O)CC3(CCN(C(=O)Cc4csc(C(F)F)n4)CC3)CC2=O)c(C)c1 [Compound A194]
SETFA POST percentage damage (five point scale) (Setaria faberi (SETFA) [1]): 5 (5=80-100%) | ECHCG PRE percentage damage (five point scale) [2]: 5 (5=80-100%) | LOLPE PRE percentage damage (five point scale) (Lolium perenne (LOLPE) [3]): 5 (5=80-100%) | ALOMY PRE percentage damage (five point scale) [4]: 4 (4=60-79%) | SETFA PRE percentage damage (five point scale) (Setaria faberi (SETFA) [5]): 5 (5=80-100%) | AVEFA PRE percentage damage (five point scale) (Avena fatua (AVEFA) [6]): 5 (5=80-100%) | ECHCG POST percentage damage (five point scale) [7]: 5 (5=80-100%) | LOLPE POST percentage damage (five point scale) (Lolium perenne (LOLPE) [8]): 5 (5=80-100%) | ALOMY POST percentage damage (five point scale) [9]: 4 (4=60-79%) | AVEFA POST percentage damage (five point scale) (Avena fatua (AVEFA) [10]): 5 (5=80-100%)

CC#Cc1cc(C)c(C2=C(OC(=O)OC)CC3(CCN(C(=O)c4ccccn4)CC3)CC2=O)c(C)c1 [Compound P24]
SETFA POST percentage damage (five point scale) (Setaria faberi (SETFA) [1]): 5 (5=80-100%) | ECHCG PRE percentage damage (five point scale) [2]: 5 (5=80-100%) | LOLPE PRE percentage damage (five point scale) (Lolium perenne (LOLPE) [3]): 5 (5=80-100%) | ALOMY PRE percentage damage (five point scale) [4]: 5 (5=80-100%) | SETFA PRE percentage damage (five point scale) (Setaria faberi (SETFA) [5]): 5 (5=80-100%) | AVEFA PRE percentage damage (five point scale) (Avena fatua (AVEFA) [6]): 5 (5=80-100%) | ECHCG POST percentage damage (five point scale) [7]: 5 (5=80-100%) | LOLPE POST percentage damage (five point scale) (Lolium perenne (LOLPE) [8]): 5 (5=80-100%) | ALOMY POST percentage damage (five point scale) [9]: 5 (5=80-100%) | AVEFA POST percentage damage (five point scale) (Avena fatua (AVEFA) [10]): 5 (5=80-100%)

CC#Cc1cc(C)c(C2C(=O)CC3(CCN(S(=O)(=O)c4ccccn4)CC3)CC2=O)c(C)c1 [Compound A70]
SETFA POST percentage damage (five point scale) (Setaria faberi (SETFA) [1]): 5 (5=80-100%) | ECHCG PRE percentage damage (five point scale) [2]: 5 (5=80-100%) | LOLPE PRE percentage damage (five point scale) (Lolium perenne (LOLPE) [3]): 5 (5=80-100%) | ALOMY PRE percentage damage (five point scale) [4]: 5 (5=80-100%) | SETFA PRE percentage damage (five point scale) (Setaria faberi (SETFA) [5]): 5 (5=80-100%) | AVEFA PRE percentage damage (five point scale) (Avena fatua (AVEFA) [6]): 5 (5=80-100%) | ECHCG POST percentage damage (five point scale) [7]: 5 (5=80-100%) | LOLPE POST percentage damage (five point scale) (Lolium perenne (LOLPE) [8]): 5 (5=80-100%) | ALOMY POST percentage damage (five point scale) [9]: 5 (5=80-100%) | AVEFA POST percentage damage (five point scale) (Avena fatua (AVEFA) [10]): 5 (5=80-100%)

CC#Cc1cc(C)c(C2=C(OC(=O)OC)CC3(CCN(C(=O)COCC)CC3)CC2=O)c(C)c1 [Compound P51]
SETFA POST percentage damage (five point scale) (Setaria faberi (SETFA) [1]): 5 (5=80-100%) | ECHCG PRE percentage damage (five point scale) [2]: 5 (5=80-100%) | LOLPE PRE percentage damage (five point scale) (Lolium perenne (LOLPE) [3]): 5 (5=80-100%) | ALOMY PRE percentage damage (five point scale) [4]: 5 (5=80-100%) | SETFA PRE percentage damage (five point scale) (Setaria faberi (SETFA) [5]): 5 (5=80-100%) | AVEFA PRE percentage damage (five point scale) (Avena fatua (AVEFA) [6]): 5 (5=80-100%) | ECHCG POST percentage damage (five point scale) [7]: 5 (5=80-100%) | LOLPE POST percentage damage (five point scale) (Lolium perenne (LOLPE) [8]): 5 (5=80-100%) | ALOMY POST percentage damage (five point scale) [9]: 5 (5=80-100%) | AVEFA POST percentage damage (five point scale) (Avena fatua (AVEFA) [10]): 5 (5=80-100%)

CC#Cc1cc(C)c(C2=C(OC(C)=O)CC3(CCN(C(=O)NC(C)=O)CC3)CC2=O)c(C)c1 [Compound P12]
SETFA POST percentage damage (five point scale) (Setaria faberi (SETFA) [1]): 5 (5=80-100%) | ECHCG PRE percentage damage (five point scale) [2]: 5 (5=80-100%) | LOLPE PRE percentage damage (five point scale) (Lolium perenne (LOLPE) [3]): 5 (5=80-100%) | ALOMY PRE percentage damage (five point scale) [4]: 4 (4=60-79%) | SETFA PRE percentage damage (five point scale) (Setaria faberi (SETFA) [5]): 5 (5=80-100%) | AVEFA PRE percentage damage (five point scale) (Avena fatua (AVEFA) [6]): 4 (4=60-79%) | ECHCG POST percentage damage (five point scale) [7]: 5 (5=80-100%) | LOLPE POST percentage damage (five point scale) (Lolium perenne (LOLPE) [8]): 5 (5=80-100%) | ALOMY POST percentage damage (five point scale) [9]: 5 (5=80-100%) | AVEFA POST percentage damage (five point scale) (Avena fatua (AVEFA) [10]): 5 (5=80-100%)

CC#Cc1cc(C)c(C2C(=O)CC3(CCN(C(=O)COC(F)F)CC3)CC2=O)c(C)c1 [Compound A197, 3-[2-(difluoromethoxy)acetyl]-9-(2,6-dimethyl-4-prop-1-ynyl-phenyl)-3-azaspiro[5.5]undecane-8,10-dione]
SETFA POST percentage damage (five point scale) (Setaria faberi (SETFA) [1]): 5 (5=80-100%) | ECHCG PRE percentage damage (five point scale) [2]: 5 (5=80-100%) | LOLPE PRE percentage damage (five point scale) (Lolium perenne (LOLPE) [3]): 5 (5=80-100%) | ALOMY PRE percentage damage (five point scale) [4]: 5 (5=80-100%) | SETFA PRE percentage damage (five point scale) (Setaria faberi (SETFA) [5]): 5 (5=80-100%) | AVEFA PRE percentage damage (five point scale) (Avena fatua (AVEFA) [6]): 5 (5=80-100%) | ECHCG POST percentage damage (five point scale) [7]: 5 (5=80-100%) | LOLPE POST percentage damage (five point scale) (Lolium perenne (LOLPE) [8]): 5 (5=80-100%) | ALOMY POST percentage damage (five point scale) [9]: 5 (5=80-100%) | AVEFA POST percentage damage (five point scale) (Avena fatua (AVEFA) [10]): 5 (5=80-100%)

CC#Cc1cc(C)c(C2=C(OC(=O)c3ccccn3)CC3(CCN(C(=O)c4ccccn4)CC3)CC2=O)c(C)c1 [Compound P25]
SETFA POST percentage damage (five point scale) (Setaria faberi (SETFA) [1]): 5 (5=80-100%) | ECHCG PRE percentage damage (five point scale) [2]: 5 (5=80-100%) | LOLPE PRE percentage damage (five point scale) (Lolium perenne (LOLPE) [3]): 5 (5=80-100%) | ALOMY PRE percentage damage (five point scale) [4]: 5 (5=80-100%) | SETFA PRE percentage damage (five point scale) (Setaria faberi (SETFA) [5]): 5 (5=80-100%) | AVEFA PRE percentage damage (five point scale) (Avena fatua (AVEFA) [6]): 5 (5=80-100%) | ECHCG POST percentage damage (five point scale) [7]: 5 (5=80-100%) | LOLPE POST percentage damage (five point scale) (Lolium perenne (LOLPE) [8]): 5 (5=80-100%) | ALOMY POST percentage damage (five point scale) [9]: 5 (5=80-100%) | AVEFA POST percentage damage (five point scale) (Avena fatua (AVEFA) [10]): 5 (5=80-100%)

CC#Cc1cc(C)c(C2C(=O)CC3(CCN(S(=O)(=O)CC4COCCO4)CC3)CC2=O)c(C)c1 (stereo not drawn) [Compound A39]
SETFA POST percentage damage (five point scale) (Setaria faberi (SETFA) [1]): 5 (5=80-100%) | ECHCG PRE percentage damage (five point scale) [2]: 5 (5=80-100%) | LOLPE PRE percentage damage (five point scale) (Lolium perenne (LOLPE) [3]): 5 (5=80-100%) | ALOMY PRE percentage damage (five point scale) [4]: 4 (4=60-79%) | SETFA PRE percentage damage (five point scale) (Setaria faberi (SETFA) [5]): 5 (5=80-100%) | AVEFA PRE percentage damage (five point scale) (Avena fatua (AVEFA) [6]): 4 (4=60-79%) | ECHCG POST percentage damage (five point scale) [7]: 5 (5=80-100%) | LOLPE POST percentage damage (five point scale) (Lolium perenne (LOLPE) [8]): 5 (5=80-100%) | ALOMY POST percentage damage (five point scale) [9]: 5 (5=80-100%) | AVEFA POST percentage damage (five point scale) (Avena fatua (AVEFA) [10]): 5 (5=80-100%)

CC#Cc1cc(C)c(C2C(=O)CC3(CCN(C(=O)c4cc(C(F)(F)F)ccn4)CC3)CC2=O)c(C)c1 [Compound A90]
SETFA POST percentage damage (five point scale) (Setaria faberi (SETFA) [1]): 5 (5=80-100%) | ECHCG PRE percentage damage (five point scale) [2]: 5 (5=80-100%) | LOLPE PRE percentage damage (five point scale) (Lolium perenne (LOLPE) [3]): 5 (5=80-100%) | ALOMY PRE percentage damage (five point scale) [4]: 5 (5=80-100%) | SETFA PRE percentage damage (five point scale) (Setaria faberi (SETFA) [5]): 5 (5=80-100%) | AVEFA PRE percentage damage (five point scale) (Avena fatua (AVEFA) [6]): 5 (5=80-100%) | ECHCG POST percentage damage (five point scale) [7]: 5 (5=80-100%) | LOLPE POST percentage damage (five point scale) (Lolium perenne (LOLPE) [8]): 5 (5=80-100%) | ALOMY POST percentage damage (five point scale) [9]: 5 (5=80-100%) | AVEFA POST percentage damage (five point scale) (Avena fatua (AVEFA) [10]): 5 (5=80-100%)

CC#Cc1cc(C)c(C2C(=O)CC3(CCN(S(=O)(=O)CC4CC4)CC3)CC2=O)c(C)c1 [Compound A15]
SETFA POST percentage damage (five point scale) (Setaria faberi (SETFA) [1]): 5 (5=80-100%) | ECHCG PRE percentage damage (five point scale) [2]: 5 (5=80-100%) | LOLPE PRE percentage damage (five point scale) (Lolium perenne (LOLPE) [3]): 5 (5=80-100%) | ALOMY PRE percentage damage (five point scale) [4]: 5 (5=80-100%) | SETFA PRE percentage damage (five point scale) (Setaria faberi (SETFA) [5]): 5 (5=80-100%) | AVEFA PRE percentage damage (five point scale) (Avena fatua (AVEFA) [6]): 5 (5=80-100%) | LOLPE POST percentage damage (five point scale) (Lolium perenne (LOLPE) [8]): 5 (5=80-100%) | ALOMY POST percentage damage (five point scale) [9]: 5 (5=80-100%) | AVEFA POST percentage damage (five point scale) (Avena fatua (AVEFA) [10]): 5 (5=80-100%)

CC#Cc1cc(C)c(C2C(=O)CC3(CCN(S(=O)(=O)c4cn(C)nc4C(F)(F)F)CC3)CC2=O)c(C)c1 [Compound A40]
SETFA POST percentage damage (five point scale) (Setaria faberi (SETFA) [1]): 5 (5=80-100%) | ECHCG PRE percentage damage (five point scale) [2]: 5 (5=80-100%) | LOLPE PRE percentage damage (five point scale) (Lolium perenne (LOLPE) [3]): 5 (5=80-100%) | ALOMY PRE percentage damage (five point scale) [4]: 5 (5=80-100%) | SETFA PRE percentage damage (five point scale) (Setaria faberi (SETFA) [5]): 5 (5=80-100%) | AVEFA PRE percentage damage (five point scale) (Avena fatua (AVEFA) [6]): 5 (5=80-100%) | LOLPE POST percentage damage (five point scale) (Lolium perenne (LOLPE) [8]): 5 (5=80-100%) | ALOMY POST percentage damage (five point scale) [9]: 5 (5=80-100%) | AVEFA POST percentage damage (five point scale) (Avena fatua (AVEFA) [10]): 5 (5=80-100%)

Reference: US12043599B2, “Herbicidal compounds” (SYNGENTA PARTICIPATIONS AG, priority 2018, dated 2024)
